The species entered for one test is Rattus norvegicus. In words: Agonistic activity against Rat muscle Nicotinic Receptor. In kind it is functional.
Test [1] addresses T1, Neuronal acetylcholine receptor; alpha3/beta4 (Homo sapiens) (UniProt P30926+P32297). In words: Agonistic activity against rat Alpha3 beta-4 Nicotinic Receptor expressed in Xenopus oocytes. The note with it: Oocyte. In kind it is functional, cell-based.
Test [2] has as its target Neuronal acetylcholine receptor subunit alpha-7 (Rattus norvegicus) (UniProt Q05941). In words: Agonistic activity against rat nicotinic acetylcholine receptor alpha-7 expressed in Xenopus oocytes. The conditions noted are these: Oocyte. In kind it is functional, cell-based.
Test [3] has the same target. The test is described as follows: Agonistic activity against rat nicotinic acetylcholine receptor alpha-7 expressed in Xenopus oocytes; NA=inactive. The conditions noted are these: Oocyte. In kind it is functional, cell-based.
Test [4] addresses Neuronal acetylcholine receptor; alpha4/beta2 (Homo sapiens) (UniProt P17787+P43681). In words: Agonistic activity against rat Nicotinic acetylcholine receptor alpha4-beta2 expressed in Xenopus oocytes; NA=inactive. In kind it is functional, cell-based. The note with it: Oocyte.
Test [5] deals with T1, Neuronal acetylcholine receptor; alpha3/beta4 (Homo sapiens). The test is described as follows: Agonistic activity against Alpha3 beta4 Nicotinic receptor from Xenopus oocytes expressing recombinant nAChR from rat; NA=inactive. The test is classed as functional, cell-based. The conditions noted are these: Oocyte.
The test system of test [6] is Neuronal acetylcholine receptor alpha3/beta4 (Rattus norvegicus). The test is described as follows: Agonistic activity against Alpha3 beta-4 Nicotinic receptor from Xenopus oocytes expressing recombinant nAChR from rat. The note with it: Oocyte.
Test [7] concerns Neuronal acetylcholine receptor alpha4/beta2 (Rattus norvegicus). In words: Agonistic activity against rat Nicotinic acetylcholine receptor alpha4-beta2 expressed in Xenopus oocytes. The note with it: Oocyte.
Test [8] addresses T1, Neuronal acetylcholine receptor; alpha3/beta4 (Homo sapiens). The test is described as follows: Agonistic activity against rat Alpha3 beta-4 Nicotinic Receptor expressed in Xenopus oocytes; NA=inactive. In kind it is functional, cell-based. The conditions noted are these: Oocyte.

Molecules are shown by their SMILES. Calls of active or inactive are those of the source. The rule behind the calls is not given here.

Sequence of Neuronal acetylcholine receptor subunit alpha-7 (Rattus norvegicus) (Q05941 whole entry): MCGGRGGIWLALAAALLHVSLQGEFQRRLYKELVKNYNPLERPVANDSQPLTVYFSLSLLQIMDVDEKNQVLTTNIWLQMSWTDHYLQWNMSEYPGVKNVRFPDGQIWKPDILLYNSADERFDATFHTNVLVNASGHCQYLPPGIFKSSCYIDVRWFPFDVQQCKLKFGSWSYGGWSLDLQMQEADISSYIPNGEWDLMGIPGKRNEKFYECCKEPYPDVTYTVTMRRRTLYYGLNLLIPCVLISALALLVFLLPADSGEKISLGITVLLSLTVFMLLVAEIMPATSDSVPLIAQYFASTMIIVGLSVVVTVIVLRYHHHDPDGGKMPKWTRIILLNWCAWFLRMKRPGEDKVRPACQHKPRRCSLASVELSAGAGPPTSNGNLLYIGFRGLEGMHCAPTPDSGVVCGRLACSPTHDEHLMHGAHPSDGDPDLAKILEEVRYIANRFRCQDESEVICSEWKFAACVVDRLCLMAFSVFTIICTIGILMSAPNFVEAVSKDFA

On to `Clc1ccc(C2CC3CCC2N3)cn1` (racemic) [EPIBATIDINE], for which the values for the Activity (in the test listed under Rattus norvegicus; in test [1]; in [2]) were 0.03 µM, 0.005 µM and 0.5 µM, respectively.

Regarding `FC(F)(F)c1cc(C2CC3CCC2N3)c(C(F)(F)F)nn1` (stereo not given), the outcome in test [3], in test [4] and in [5] was inactive.

Turning to `CN1CCC[C@H]1c1cccnc1.O=C(O)C(O)C(O)C(=O)O.O=C(O)C(O)C(O)C(=O)O`, the figures for the Activity (in the test filed under Rattus norvegicus; in [2]) were 6.3 µM and 12.6 µM, respectively.

`c1cc(C2CC3CCC2N3)cnn1` (stereo not given): the Activity was determined as 0.16 µM in the test filed under Rattus norvegicus, 40 µM in test [2], 0.16 µM in [6] and 0.02 µM in test [7].

Turning to `CCOC(=O)N1C2CC[C@@H]1CC2c1ccnnc1` (stereo not given in full), the Activity (in the test listed under Rattus norvegicus; in [7]) was over 100 µM in each case. Further, the outcome in test [3] and in test [5] was inactive.

Consider `CN1C2CC[C@@H]1CC2c1ccnnc1` (stereo not given in full), for which the Activity in the test listed under Rattus norvegicus came to 0.2 µM; in test [2], 25 µM; in test [6], 0.32 µM; in test [7] it was 0.013 µM.

For the compound `CCOC(=O)N1C2CC[C@@H]1CC2c1cc(Cl)nnc1Cl` (stereo not given in full), the outcome in test [3], in test [4] and in test [8] was inactive.

As for `CC(=O)OCC[N+](C)(C)C` [ACETYLCHOLINE], the results for the Activity (in the test filed under Rattus norvegicus; in test [2]) were 0.1 µM and 50 µM, respectively.

The values above are taken from ChEMBL document CHEMBL1134463 (2001).
